Values quoted from earlier work as cited in patent US4323647A, “Steric hindrance enzyme immunoassay” (University of Miami, priority 1980, dated 1982).

Biological target: beta-galactosidase isolated from E. coli (Escherichia coli, UniProt P00722)
Conditions: potent competitive inhibitor; Lai, et al., Biophys. Res. Comm. 54: 463-468 (1973)

Sequence of beta-galactosidase isolated from E. coli (P00722 2-1024 limits assumed): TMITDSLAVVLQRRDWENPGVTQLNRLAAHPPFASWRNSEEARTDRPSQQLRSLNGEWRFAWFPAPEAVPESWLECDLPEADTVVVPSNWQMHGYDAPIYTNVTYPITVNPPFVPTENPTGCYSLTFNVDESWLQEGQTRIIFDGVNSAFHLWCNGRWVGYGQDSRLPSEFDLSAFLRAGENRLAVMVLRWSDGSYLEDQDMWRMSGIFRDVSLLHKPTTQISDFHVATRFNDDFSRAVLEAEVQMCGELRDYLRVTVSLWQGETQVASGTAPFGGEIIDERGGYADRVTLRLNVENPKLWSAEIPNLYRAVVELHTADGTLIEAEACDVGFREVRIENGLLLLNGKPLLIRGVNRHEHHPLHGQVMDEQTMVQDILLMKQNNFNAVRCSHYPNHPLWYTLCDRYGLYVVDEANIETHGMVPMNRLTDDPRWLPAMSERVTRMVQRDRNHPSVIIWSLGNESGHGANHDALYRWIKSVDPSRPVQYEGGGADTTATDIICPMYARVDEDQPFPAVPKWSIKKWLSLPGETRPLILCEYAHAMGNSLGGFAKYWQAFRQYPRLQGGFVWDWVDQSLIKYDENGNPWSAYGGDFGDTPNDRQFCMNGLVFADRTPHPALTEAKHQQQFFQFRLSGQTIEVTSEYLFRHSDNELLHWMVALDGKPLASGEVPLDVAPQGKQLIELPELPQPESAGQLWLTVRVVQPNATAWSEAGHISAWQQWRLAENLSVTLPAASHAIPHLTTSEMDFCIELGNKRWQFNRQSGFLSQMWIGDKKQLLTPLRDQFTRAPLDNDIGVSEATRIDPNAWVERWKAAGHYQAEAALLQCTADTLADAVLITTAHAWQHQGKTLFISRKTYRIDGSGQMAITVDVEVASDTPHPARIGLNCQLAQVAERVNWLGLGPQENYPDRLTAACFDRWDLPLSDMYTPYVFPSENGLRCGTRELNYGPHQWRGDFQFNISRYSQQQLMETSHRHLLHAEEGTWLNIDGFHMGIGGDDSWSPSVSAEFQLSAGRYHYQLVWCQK

N[C@@H]1O[C@H](CO)[C@H](O)[C@H](O)[C@H]1O [beta-D-galactosylamine]
Ki: 225 µM
